Where two headings read alike, the source gives them in different places.
Columns and labels:
[1] = Description: For this reason it was important to determine also the potential conversion to hyperpolarized [^15N]nitrite in human saliva.
To test for the presence of [^15N]nitrite in this saline-saliva sample after the hyperpolarized state had decayed, the same sample was scanned at thermal equilibrium as well. The sample was scanned for 20 h, at room temperature.
(§1) In the next step, this solution was divided into 2 samples, in the following manner: 3 mL of this solution were combined with 0.75 mL of human saliva and the combined solution was scanned for 5 days. The rest of the solution (without human saliva) was kept outside the magnet at room temperature.

[2] = remark: listed apart in the source
Description: Then, 4.59 mL saline and 0.66 mL of D2O were added to this mixture. This solution was transferred to an NMR tube and scanned for 5 days. ^15N fully-relaxed spectra were recorded in blocks of about 4 h, whereas each block consisted of 720 averages with a 30 flip angle and a repetition time of 20 s.
as §1

[3] = remark: listed apart in the source
Description: The small amounts of hyperpolarized solution were added to the blood sample at 0, 3, 6, 7.25, and 9.17 min from arrival of the solution to the collection tube.

[4] = remark: listed apart in the source
Description: (§2) ^15N-NMR spectroscopy was performed in a 5.8T NMR spectrometer (RS2D, Mundolsheim, France), using a 10 mm broad-band NMR probe. The chemical shift scale of the spectra presented herein was calibrated based on a separate measurement of a [^15N2]urea standard sample (4M in H2O:D2O 80:20), carried out prior to hyperpolarized ^15N acquisitions, calibrating the [^15N2]urea signal to −306 ppm (relative to nitromethane). For enhancement factor calculation, the spectra were collected with a high flip angle of […] and a repetition time of 2 s. For T1 calculation, the spectra were acquired with a low flip angle of […] and a longer repetition time of 5-10 s.
The absolute enhancement factor was determined by comparing the maximal SNR of the magnitude signal multiplied by the linewidth at half-height obtained under hyperpolarized conditions to the intensity of the thermal equilibrium signal of the same sample (analyzed in the same way). The spectrum at thermal equilibrium was acquired with the same nutation angle under fully relaxed conditions. The same spectral acquisition parameters (spectral width, number of points, receiver gain) and processing parameters (apodization, zero-filling) were used in the analysis of both spectra and the thermal equilibrium signal was corrected for the number of scans.
in the same spectrometer used to record the hyperpolarized signal (5.8T), as described in the Methods section, and then projected to the expected enhancement factors at a common clinical scanner at 1.5T. Enhancement factors were calculated with reference to a spectrum of the same sample.

[5] = tested on: breast tumor bearing mouse; conditions: 50 mM solution injected
[6] = for T1 in the 1st min of hyperpolarization decay: 0-60 s; for T1 in the 2nd min of hyperpolarization decay: 65-120 s
Description: The dissolution process is detailed in the results section. […] Unless otherwise stated, the dissolved hyperpolarized solution was directly injected to a screw cup 10 mm NMR tube in a 5.8T NMR spectrometer via a PTFE line of about 2.4 m length with 3 s of He(g) chase. This line was wrapped with a heating tape (MRC, Holon, Israel) that enabled control over the temperature of the dissolution medium arriving to the NMR tube directly or to a collection tube in the fringe field of the spectrometer. ^15N-Nuclear Magnetic Resonance (NMR) spectra were continuously recorded immediately at the start of the dissolution process. […] In the experiments in body fluids and in experiments in which the hyperpolarized solution was first cooled to temperatures below room temperature, the dissolution media was first collected in a conical tube placed in the spectrometer's fringe field, and then was injected by syringe via a PEEK line to the NMR tube that was placed in the magnet.
For heating this hyperpolarized solution prior to arrival to the NMR tube, the PTFE line leading the hyperpolarized solution out of the spin polarization device was wrapped with a heating tape connected to a temperature controller (MRC, Holon, Israel). In this way, hyperpolarized solutions at temperatures higher than 26° C. could be obtained. For cooling the hyperpolarized solution, the heating tape was not turned on and the dissolution medium was mixed with 0 to 4 mL of D2O at 2° C. in a collection tube placed in ice-water bath in the fringe field of the magnet, prior to injection.
as §2
The temperature in the NMR tube was continuously monitored using an NMR compatible temperature probe (Osensa, Burnaby, BC, Canada).
Determination of the T1 of the hyperpolarized sites was performed by curve fitting of the signal decay to the following equation: S(t)=S0·e^−t/T^1·(cos θ)^t/TR, in which TR, the time between excitations, and θ, the nutation angle of excitation, are known. Curve fitting was performed using Matlab (Mathworks, Natick, Mass., USA).

[7] = rats; cited from earlier work
[8] = mice; cited from earlier work
[9] = dogs; up to 120 mg/kg daily i.v. for 28 days; cited from earlier work
[10] = previous results; cited from earlier work
[11] = Estimated ^15N T1 (FIG. 1); conditions: same order of magnitude as [^15N,D9]choline, called a speculation
Description: FIG. 1 ^15N T1s of selected molecules in water (H2O) and D2O measured at 5.8 T; (a) denotes Na^15NO3; (b) denotes solid-state polarization in D2O and dissolution in D2O.; (c) denotes solid-state polarization in D2O and dissolution in H2O.; In this case, during the decay in solution the nitrogen positions are fully protonated as confirmed by the respective split pattern of the signal (not shown); a, b, and c—determined experimentally; (d) denotes estimation.

O=[15N+]([O-])[O-].[Na+] [[^15N]nitrate, sodium [^15N]nitrate]
conversion rate of nitrate to nitrite [1]: about 3.8 mole per day per 0.75 mL of saliva | signals in saline-saliva sample [1]: about equal signals of [^15N]nitrate and [^15N]nitrite | T1 in the 1st min of hyperpolarization decay ([1]; Saline + saliva (n = 1), 0-60 s): 116 | signals in saline solution ([2]; 22 mM with glucose 2.7 mM in saline, scanned 5 days, room temperature, FIG. 5A): Only the [^15N]nitrate signal appears in the spectrum | conversion to [^15N]nitrite in saline without saliva ([2]; additional 5 days scan started after 14 days at room temperature, FIG. 5C): no conversion to [^15N]nitrite was observed | stable in saline solution ([2]; room temperature): at least 19 days | T1 in the 1st min of hyperpolarization decay ([3]; Blood (n = 3), 0-60 s): 27 ± 0.4 | T1 in the 2nd min of hyperpolarization decay ([3]; Blood (n = 3), 65-120 s): 48 ± 1 | increase of T1 in 2nd min versus 1st min ([3]; blood): 78% | T1 in blood ([3]; decay 1 of consecutive injections, error = 95% CI of fit): 29 ± 2 s | T1 in blood ([3]; decay 2 of consecutive injections, error = 95% CI of fit): 30 ± 3 s | T1 ([3]; saline/whole human blood mixture (4 mL + 10 mL), 25 mM, 32-36° C., error = 95% CI of fit): 29 ± 1 s | T1 upon mixing with whole blood ([3]; three measurements in two different blood samples): 29 ± 1 s | ^15N polarization ([4]; corresponds to enhancement factor 5,298): 1% | enhancement factor extrapolated to clinical MRI field of 1.5T ([4]; extrapolated from 5,298 at 5.8 T): about 20,500 | maximal enhancement factor ([4]; first signal in solution, 5.8 T, 2.5 h polarization at 1.5-1.6 K): 5,298 | percent polarization of the ^15N ([4]; physiological saline, HP vs TE spectra FIG. 3C/3D, 30° nutation angle): 0.6% | mouse vascular system in ^15N MR image [5]: enhanced in the MR image | tumor tissue in ^15N MR image [5]: enhanced in the MR image | dependence of T1 on temperature ([6]; 34-50° C.): does not change | increase of T1 in 2nd min versus 1st min ([6]; D2O): 43% | T1 in the 1st min of hyperpolarization decay ([6]; D2O (n = 4)): 81 ± 20 | T1 in the 2nd min of hyperpolarization decay ([6]; D2O (n = 4)): 116 ± 7 | T1 in the 1st min of hyperpolarization decay ([6]; H2O (n = 2)): 99 ± 3 | T1 in the 2nd min of hyperpolarization decay ([6]; H2O (n = 2)): 99 ± 5

C[N+](C)(C)CCOP(=O)([O-])OC[C@H](O)CO [GPC, glycerophosphocholine]
safe dose for an intravenous injection [7]: 781 mg/kg | safe dose for an intravenous injection [8]: 521 mg/kg | effects of daily intravenous injection [9]: only mild and reversible mood changes and no mortality

[2H]C([2H])([2H])[15N+](CCO)(C([2H])([2H])[2H])C([2H])([2H])[2H] [[^15N,D9]choline]
^15N T1 [10]: about 6 min

[2H]C([2H])([2H])[15N+](CCOP(=O)([O-])OCC(O)CO)(C([2H])([2H])[2H])C([2H])([2H])[2H] (stereo not drawn) [[^15N,D9]GPC, [^15N,D9]glycerophosphocholine]
^15N T1 (estimated) [11]: about 6 min
